In PMC11508649 (International Journal of Molecular Sciences, 2024):
Where a name gives a salt, the structure may show the parent alone. Read-outs that look alike come from different tables or passages of the source. Marks after values point to notes of the source that are not given here.

Experiments:
human 5-HT1A receptor [1] = target: T1, human 5-HT1A receptor (Homo sapiens, UniProt P08908); experiment: 5-HT1A receptor radioligand binding ([3H]-8-OH-DPAT, CHO-K1 membranes); conditions: displacement of [3H]-8-OH-DPAT, mean ± SEM of three experiments, NC = not converged
T1 construct: purchased PerkinElmer; host or cells: CHO-K1
T1 sequence (P08908 1-422): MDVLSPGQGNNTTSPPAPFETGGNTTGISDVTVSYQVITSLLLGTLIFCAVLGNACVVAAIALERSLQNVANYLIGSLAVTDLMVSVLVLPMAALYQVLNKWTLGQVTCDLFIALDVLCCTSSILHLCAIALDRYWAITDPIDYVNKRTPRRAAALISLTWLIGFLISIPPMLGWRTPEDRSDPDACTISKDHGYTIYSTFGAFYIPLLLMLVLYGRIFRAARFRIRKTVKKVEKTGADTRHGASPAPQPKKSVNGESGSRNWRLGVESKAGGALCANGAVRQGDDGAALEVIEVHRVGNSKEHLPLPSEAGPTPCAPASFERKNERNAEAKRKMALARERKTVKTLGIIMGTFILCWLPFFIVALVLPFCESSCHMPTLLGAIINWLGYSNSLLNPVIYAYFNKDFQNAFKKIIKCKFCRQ
Method: (§1) Each compound was tested in 6 concentrations from 10–5 to 10–10 M (final concentration).
(§2) All assays were carried out in duplicates.

[2] = target: T2, human serotonin transporter (Homo sapiens, UniProt P31645); experiment: Serotonin transporter radioligand binding ([3H]-imipramine, HEK-293 membranes)
T2 construct: purchased PerkinElmer; host or cells: HEK-293
Method: as §1, §2

human 5-HT1A receptor [3] = target: T1, human 5-HT1A receptor; conditions: previously described 1H-indole analogues; read-out: Ki ± SEM 5-HT1A; cited from earlier work
[4] = target: T2, human serotonin transporter; conditions: previously described 1H-indole analogues; read-out: Ki ± SEM SERT; cited from earlier work
[5] = target: human dopamine transporter (Homo sapiens, UniProt Q01959); experiment: DAT binding assay ([3H]-WIN 35,428, CHO-K1 membranes); conditions: for Selectivity Ratio hDAT/hSERT: ratio of Ki values
Method: (§3) Ten-micromolar stock solutions of tested compounds were prepared in DMSO. […] Each compound was tested in a screening assay at final concentrations of 10 µM and 1 µM. Results were expressed as percent inhibition of radioligand binding. Reference compounds were tested in 8 concentrations from 10^−5 to 10^−12 M (final concentration).
Radioligand binding was performed using membranes from CHO-K1 cells stably transfected with the human dopamine transporter (PerkinElmer, Waltham, MA, USA). All assays were carried out in duplicates. […] The microplate was covered with sealing tape, mixed and incubated for 120 min at 4 °C. The reaction was terminated by rapid filtration through GF/C filter mate pre-soaked with 0.5% polyethyleneimine for 30 min. Ten rapid washes with 200 µL of 50 mM Tris buffer (4 °C, pH 7.4) were performed using the automated harvester system Harvester-96 MACH III FM (Tomtec, Hamden, CT, USA). […] Radioactivity was counted using a MicroBeta2 scintillation counter (PerkinElmer, Turku, Finland). Data were fitted to a one-site curve-fitting equation with Prism 5 (GraphPad Software), and Ki values were estimated using the Cheng–Prusoff equation.

[6] = target: human norepinephrine transporter (Homo sapiens, UniProt P23975); experiment: NET binding assay ([3H]-nisoxetine, MDCK membranes); conditions: at 1 µM
Method: We performed radioligand binding assays using membranes from CHO-K1 cells stably transfected with human DAT and membranes from MDCK cells stably transfected with human NET. This was accomplished by assessing the displacement of [^3H]-WIN35,428 and [^3H]-nisoxetine from cloned human DAT and NET, respectively.
as §3
Radioligand binding was performed using membranes from MDCK cells stably transfected with the human norepinephrine transporter (PerkinElmer, Waltham, MA, USA). All assays were carried out in duplicates. Measures of 50 µL of working solution of the tested compounds, 50 µL of [^3H]-nisoxetine (final concentration 4 nM) and 150 µL of diluted membranes (3 µg protein per well) prepared in assay buffer (50 mM Tris-HCl, pH 7.4, 120 mM NaCl; 5 mM KCl) were transferred to a polypropylene 96-well microplate using the 96-well pipetting station Rainin Liquidator (MettlerToledo, Beverly, MA, USA). […] The microplate was covered with sealing tape, mixed and incubated for 60 min at 4 °C. The reaction was terminated by rapid filtration through GF/C filter mate pre-soaked with 0.5% polyethyleneimine for 30 min. Ten rapid washes with 200 µL of 50 mM Tris buffer (4 °C, pH 7.4) were performed using the automated harvester system Harvester-96 MACH III FM (Tomtec, Hamden, CT, USA). […] Radioactivity was counted using a MicroBeta2 scintillation counter (PerkinElmer, Turku, Finland). Data were fitted to a one-site curve-fitting equation with Prism 5 (GraphPad Software), and Ki values were estimated using the Cheng–Prusoff equation.

α1-adrenoceptor = experiment: ADRA1 receptor binding assay ([3H]-prazosin, rat cortex); conditions: read-out: Ki ± SEM α1
[7] = displacement of [3H]-imipramine, HEK-293 membranes, mean ± SEM of three experiments, read-out: Ki ± SEM SERT

Chain of human dopamine transporter (Q01959 whole entry): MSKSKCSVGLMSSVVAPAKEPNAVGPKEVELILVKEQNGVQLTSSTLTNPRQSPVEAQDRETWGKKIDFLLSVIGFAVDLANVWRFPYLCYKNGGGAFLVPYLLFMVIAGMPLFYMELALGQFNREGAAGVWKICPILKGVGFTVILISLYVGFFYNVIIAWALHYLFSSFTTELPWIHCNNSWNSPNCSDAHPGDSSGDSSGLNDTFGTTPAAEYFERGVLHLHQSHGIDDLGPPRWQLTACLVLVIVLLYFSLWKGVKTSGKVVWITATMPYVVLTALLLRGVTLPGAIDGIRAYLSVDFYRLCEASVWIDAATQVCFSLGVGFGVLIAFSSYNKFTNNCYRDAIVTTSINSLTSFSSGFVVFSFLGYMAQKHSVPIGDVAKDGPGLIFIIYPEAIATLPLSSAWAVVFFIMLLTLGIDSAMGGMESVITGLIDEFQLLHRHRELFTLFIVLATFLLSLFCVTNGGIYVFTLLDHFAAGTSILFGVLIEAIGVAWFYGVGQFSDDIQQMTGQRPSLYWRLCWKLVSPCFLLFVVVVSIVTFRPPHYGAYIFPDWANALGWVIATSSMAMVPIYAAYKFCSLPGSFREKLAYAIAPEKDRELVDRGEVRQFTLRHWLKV
Chain of human norepinephrine transporter (P23975 whole entry): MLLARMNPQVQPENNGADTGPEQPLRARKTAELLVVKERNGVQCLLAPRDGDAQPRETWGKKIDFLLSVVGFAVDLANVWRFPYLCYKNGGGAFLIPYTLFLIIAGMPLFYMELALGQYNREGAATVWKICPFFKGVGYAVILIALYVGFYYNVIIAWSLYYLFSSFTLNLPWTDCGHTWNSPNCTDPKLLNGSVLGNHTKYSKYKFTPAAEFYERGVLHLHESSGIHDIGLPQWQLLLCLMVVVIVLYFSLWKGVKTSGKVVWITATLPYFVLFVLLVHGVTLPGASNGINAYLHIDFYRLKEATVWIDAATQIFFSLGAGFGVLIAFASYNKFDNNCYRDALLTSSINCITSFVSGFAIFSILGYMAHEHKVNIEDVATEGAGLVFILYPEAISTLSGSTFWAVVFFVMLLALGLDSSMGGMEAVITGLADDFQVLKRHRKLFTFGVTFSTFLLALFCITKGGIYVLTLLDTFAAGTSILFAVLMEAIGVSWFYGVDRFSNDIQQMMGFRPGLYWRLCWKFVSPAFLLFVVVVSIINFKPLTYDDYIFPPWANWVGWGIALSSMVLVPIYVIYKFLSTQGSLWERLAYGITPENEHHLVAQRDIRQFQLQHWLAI
T2 sequence (P31645 whole entry): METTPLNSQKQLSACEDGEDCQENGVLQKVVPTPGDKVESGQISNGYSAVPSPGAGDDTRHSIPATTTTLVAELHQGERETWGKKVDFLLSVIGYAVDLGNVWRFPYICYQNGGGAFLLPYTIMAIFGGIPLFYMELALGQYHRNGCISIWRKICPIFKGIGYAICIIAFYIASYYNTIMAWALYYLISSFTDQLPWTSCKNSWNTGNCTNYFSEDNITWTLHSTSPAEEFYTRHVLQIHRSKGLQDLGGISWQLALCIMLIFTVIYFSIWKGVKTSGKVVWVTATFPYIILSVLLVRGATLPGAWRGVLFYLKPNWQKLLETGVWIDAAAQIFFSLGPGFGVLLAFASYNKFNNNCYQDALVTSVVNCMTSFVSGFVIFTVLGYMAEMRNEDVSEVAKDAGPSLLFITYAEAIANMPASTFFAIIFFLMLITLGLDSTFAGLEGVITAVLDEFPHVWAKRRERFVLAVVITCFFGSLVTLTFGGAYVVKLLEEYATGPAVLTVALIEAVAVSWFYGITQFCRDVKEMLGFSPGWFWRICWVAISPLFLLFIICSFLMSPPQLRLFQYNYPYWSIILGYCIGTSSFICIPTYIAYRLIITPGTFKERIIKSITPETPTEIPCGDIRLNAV

| SMILES | melting point | Ki (human 5-HT1A receptor [3]) | Ki [4] | other results |
| --- | --- | --- | --- | --- |
| O=C1CC(c2c[nH]c3ccc(F)cc23)C(=O)N1CCCCN1CC=C(c2c[nH]c3ncccc23)CC1 (stereo not drawn) [Compound 10, 1-(4-(4-(1H-Pyrrolo[2,3-b]pyridin-3-yl)-3,6-dihydropyridin-1(2H)-yl)butyl)-3-(5-fluoro-1H-indol-3-yl)pyrrolidine-2,5-dione] |  |  |  | Ki (human 5-HT1A receptor [1]): 128 ± 12 nM; Ki [2, 7]: 77.6 ± 2.5 nM |
| COc1ccc2[nH]cc(C3CC(=O)N(CCN4CC=C(c5c[nH]c6ncccc56)CC4)C3=O)c2c1 (stereo not drawn) (as salt: hydrochloride) [Compound 9, 1-(2-(4-(1H-Pyrrolo[2,3-b]pyridin-3-yl)-3,6-dihydropyridin-1(2H)-yl)ethyl)-3-(5-methoxy-1H-indol-3-yl)pyrrolidine-2,5-dione] | 129 to 132 °C |  |  |  |
| O=C1CC(c2c[nH]c3ccc(F)cc23)C(=O)N1CCN1CC=C(c2c[nH]c3ncccc23)CC1 (stereo not drawn) (as salt: hydrochloride) [Compound 12, 1-(2-(4-(1H-Pyrrolo[2,3-b]pyridin-3-yl)-3,6-dihydropyridin-1(2H)-yl)ethyl)-3-(5-fluoro-1H-indol-3-yl)pyrrolidine-2,5-dione] | 250 to 252 °C |  |  |  |
| COc1ccc2[nH]cc(C3CC(=O)N(CCCN4CC=C(c5c[nH]c6ccccc56)CC4)C3=O)c2c1 (stereo not drawn) [Compound 17] |  | 221 ± 11.5 nM | 782 ± 54 nM |  |
| COc1ccc2[nH]cc(C3CC(=O)N(CCCCN4CC=C(c5c[nH]c6ccccc56)CC4)C3=O)c2c1 (stereo not drawn) [Compound 16] |  | 30.4 ± 1.8 nM | 2.6 ± 0.3 nM |  |
| COc1ccc2[nH]cc(C3CC(=O)N(CCCN4CC=C(c5c[nH]c6ncccc56)CC4)C3=O)c2c1 (stereo not drawn) (as salt: hydrochloride) [Compound 8, 1-(3-(4-(1H-Pyrrolo[2,3-b]pyridin-3-yl)-3,6-dihydropyridin-1(2H)-yl)propyl)-3-(5-methoxy-1H-indol-3-yl)pyrrolidine-2,5-dione] | 111 to 115 °C |  |  |  |
| O=C1CC(c2c[nH]c3ccc(F)cc23)C(=O)N1CCN1CC=C(c2c[nH]c3ncccc23)CC1 (stereo not drawn) [Compound 12, 1-(2-(4-(1H-Pyrrolo[2,3-b]pyridin-3-yl)-3,6-dihydropyridin-1(2H)-yl)ethyl)-3-(5-fluoro-1H-indol-3-yl)pyrrolidine-2,5-dione] |  |  |  | Ki [5]: 229 ± 21.4 nM; Selectivity Ratio hDAT/hSERT [5]: 0.9; hNET screening procedure, displacement % [6]: 42% ^a; Ki (α1-adrenoceptor): 456 ± 6 nM; Ki [2, 7]: 252 ± 24 nM |
| O=C1CC(c2c[nH]c3ccccc23)C(=O)N1CCCN1CC=C(c2c[nH]c3ncccc23)CC1 (stereo not drawn) [Compound 5, 1-(3-(4-(1H-Pyrrolo[2,3-b]pyridin-3-yl)-3,6-dihydropyridin-1(2H)-yl)propyl)-3-(1H-indol-3-yl)pyrrolidine-2,5-dione] |  |  |  | Ki (human 5-HT1A receptor [1]): 2450 ± 24 nM; Ki [2]: 57.1 ± 3.2 nM |
| COc1ccc2[nH]cc(C3CC(=O)N(CCCCN4CC=C(c5c[nH]c6ncccc56)CC4)C3=O)c2c1 (stereo not drawn) (as salt: hydrochloride) [Compound 7, 1-(4-(4-(1H-Pyrrolo[2,3-b]pyridin-3-yl)-3,6-dihydropyridin-1(2H)-yl)butyl)-3-(5-methoxy-1H-indol-3-yl)pyrrolidine-2,5-dione] | 140 to 144 °C |  |  |  |
| O=C1CC(c2c[nH]c3ccccc23)C(=O)N1CCCCN1CC=C(c2c[nH]c3ncccc23)CC1 (stereo not drawn) (as salt: hydrochloride) [Compound 4, 1-(4-(4-(1H-Pyrrolo[2,3-b]pyridin-3-yl)-3,6-dihydropyridin-1(2H)-yl)butyl)-3-(1H-indol-3-yl)pyrrolidine-2,5-dione] | 172 to 177 °C |  |  |  |
| O=C1CC(c2c[nH]c3ccccc23)C(=O)N1CCN1CC=C(c2c[nH]c3ncccc23)CC1 (stereo not drawn) [Compound 6, 1-(2-(4-(1H-Pyrrolo[2,3-b]pyridin-3-yl)-3,6-dihydropyridin-1(2H)-yl)ethyl)-3-(1H-indol-3-yl)pyrrolidine-2,5-dione] |  |  |  | Ki [5]: 916 ± 40.5 nM; Selectivity Ratio hDAT/hSERT [5]: 3.7; hNET screening procedure, displacement % [6]: 37% ^a; Ki (α1-adrenoceptor): 367 ± 55.2 nM; Ki [2, 7]: 245 ± 18 nM |
| O=C1CC(c2c[nH]c3ccc(F)cc23)C(=O)N1CCCCN1CC=C(c2c[nH]c3ccccc23)CC1 (stereo not drawn) [Compound 19] |  | 48.2 ± 2.9 nM | 33.3 ± 2.9 nM |  |
| O=C1CC(c2c[nH]c3ccccc23)C(=O)N1CCCN1CC=C(c2c[nH]c3ccccc23)CC1 (stereo not drawn) [Compound 14] |  | 161 ± 17.5 nM | 4 ± 0.1 nM |  |
| O=C1CC(c2c[nH]c3ccc(F)cc23)C(=O)N1CCCCN1CC=C(c2c[nH]c3ncccc23)CC1 (stereo not drawn) (as salt: hydrochloride) [Compound 10, 1-(4-(4-(1H-Pyrrolo[2,3-b]pyridin-3-yl)-3,6-dihydropyridin-1(2H)-yl)butyl)-3-(5-fluoro-1H-indol-3-yl)pyrrolidine-2,5-dione] | 98 to 102 °C |  |  |  |
| O=C1CC(c2c[nH]c3ccccc23)C(=O)N1CCCCN1CC=C(c2c[nH]c3ccccc23)CC1 (stereo not drawn) [Compound 13] |  | 12.5 ± 1.7 nM | 11.3 ± 0.6 nM |  |
| COc1ccc2[nH]cc(C3CC(=O)N(CCN4CC=C(c5c[nH]c6ccccc56)CC4)C3=O)c2c1 (stereo not drawn) [Compound 18] |  | 348 ± 12.1 nM | 14.7 ± 1.5 nM |  |
| COc1ccc2[nH]cc(C3CC(=O)N(CCCCN4CC=C(c5c[nH]c6ncccc56)CC4)C3=O)c2c1 (stereo not drawn) [Compound 7, 1-(4-(4-(1H-Pyrrolo[2,3-b]pyridin-3-yl)-3,6-dihydropyridin-1(2H)-yl)butyl)-3-(5-methoxy-1H-indol-3-yl)pyrrolidine-2,5-dione] |  |  |  | Ki (human 5-HT1A receptor [1]): 824 ± 23.2 nM; Ki [2, 7]: 58.4 ± 4 nM |
| O=C1CC(c2c[nH]c3ccccc23)C(=O)N1CCN1CC=C(c2c[nH]c3ccccc23)CC1 (stereo not drawn) [Compound 15] |  | 250 ± 6.8 nM | 33.8 ± 3.2 nM |  |
| O=C1CC(c2c[nH]c3ccc(F)cc23)C(=O)N1CCCN1CC=C(c2c[nH]c3ncccc23)CC1 (stereo not drawn) (as salt: hydrochloride) [Compound 11, 1-(3-(4-(1H-Pyrrolo[2,3-b]pyridin-3-yl)-3,6-dihydropyridin-1(2H)-yl)propyl)-3-(5-fluoro-1H-indol-3-yl)pyrrolidine-2,5-dione] | 147 to 150 °C |  |  |  |
| O=C1CC(c2c[nH]c3ccccc23)C(=O)N1CCN1CC=C(c2c[nH]c3ncccc23)CC1 (stereo not drawn) (as salt: hydrochloride) [Compound 6, 1-(2-(4-(1H-Pyrrolo[2,3-b]pyridin-3-yl)-3,6-dihydropyridin-1(2H)-yl)ethyl)-3-(1H-indol-3-yl)pyrrolidine-2,5-dione] | 233 to 235 °C |  |  |  |
| Cc1ccc(N(CC2=NCCN2)c2cccc(O)c2)cc1 [phentolamine, reference compound] |  |  |  | Ki (α1-adrenoceptor): 11 ± 0.7 nM |
| O=C1CC(c2c[nH]c3ccccc23)C(=O)N1CCCN1CC=C(c2c[nH]c3ncccc23)CC1 (stereo not drawn) (as salt: hydrochloride) [Compound 5, 1-(3-(4-(1H-Pyrrolo[2,3-b]pyridin-3-yl)-3,6-dihydropyridin-1(2H)-yl)propyl)-3-(1H-indol-3-yl)pyrrolidine-2,5-dione] | 97 to 102 °C |  |  |  |
| COc1ccc2[nH]cc(C3CC(=O)N(CCN4CC=C(c5c[nH]c6ncccc56)CC4)C3=O)c2c1 (stereo not drawn) [Compound 9, 1-(2-(4-(1H-Pyrrolo[2,3-b]pyridin-3-yl)-3,6-dihydropyridin-1(2H)-yl)ethyl)-3-(5-methoxy-1H-indol-3-yl)pyrrolidine-2,5-dione] |  |  |  | Ki [5]: 335 ± 14.8 nM; Selectivity Ratio hDAT/hSERT [5]: 3.6; hNET screening procedure, displacement % [6]: 41% ^a; Ki (α1-adrenoceptor): 319 ± 10.2 nM; Ki [2, 7]: 92 ± 8 nM |
